The source of these data is patent US8889668B2, “Oxadiazole diaryl compounds” (Merck Serono SA, priority 2007, dated 2014).

Usually EC50 stands for the concentration at which the effect is half-maximal.

Sequence of S1P1 (P21453 whole entry, species assumed): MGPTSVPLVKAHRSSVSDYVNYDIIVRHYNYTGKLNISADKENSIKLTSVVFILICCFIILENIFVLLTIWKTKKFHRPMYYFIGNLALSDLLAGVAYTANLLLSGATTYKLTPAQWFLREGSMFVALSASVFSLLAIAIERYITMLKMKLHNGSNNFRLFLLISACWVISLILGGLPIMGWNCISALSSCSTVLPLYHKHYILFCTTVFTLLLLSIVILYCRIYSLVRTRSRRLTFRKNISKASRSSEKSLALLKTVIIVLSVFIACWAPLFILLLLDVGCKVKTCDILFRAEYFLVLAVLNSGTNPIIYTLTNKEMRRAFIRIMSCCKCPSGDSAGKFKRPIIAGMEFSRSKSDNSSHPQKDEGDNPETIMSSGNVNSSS

This test concerns the target S1P1 (Homo sapiens (Human), UniProt P21453). The experiment in a line: 35S-GTPγS binding, membranes from CHO cells expressing S1P1. Type of test: biochemical. As to conditions: 60 min 30° C., read-out: S1P1 GTPgS EC50. In general terms: Binding of GTPγS marks nucleotide exchange on a G protein.
Regarding `CN(c1ccc(-c2nc(-c3ccccc3OC(F)(F)F)no2)cc1[N+](=O)[O-])C1CCCCC1` [Compound I5, N-cyclohexyl-N-methyl-2-nitro-4-{3-[2-(trifluoromethoxy)phenyl]-1,2,4-oxadiazol-5-yl}aniline], the concentration giving a half-maximal response (EC50) stood at 589 nM.

`COc1ccccc1-c1noc(-c2ccc(N3CCOCC3)c(N)c2)n1` [Compound I6, 5-[3-(2-methoxyphenyl)-1,2,4-oxadiazol-5-yl]-2-morpholin-4-ylaniline]: the EC50 is 712 nM.

Turning to `CCOc1ccccc1-c1noc(-c2ccc(N3CCCCC3)c([N+](=O)[O-])c2)n1` [Compound I7, 1-{4-[3-(2-ethoxyphenyl)-1,2,4-oxadiazol-5-yl]-2-nitrophenyl}piperidine], the EC50 came to 254 nM.

As for `O=[N+]([O-])c1cc(-c2nc(-c3ccccc3OC(F)(F)F)no2)ccc1N1CCCC(F)(F)C1` [Compound I11, 3,3-difluoro-1-(2-nitro-4-{3-[2-(trifluoromethoxy)phenyl]-1,2,4-oxadiazol-5-yl}phenyl)piperidine], the EC50 was determined as 80 nM.

Turning to `COc1ccccc1-c1noc(-c2ccc(N3CCCC3)c([N+](=O)[O-])c2)n1` [Compound I13, 3-(2-methoxyphenyl)-5-(3-nitro-4-pyrrolidin-1-ylphenyl)-1,2,4-oxadiazole], the EC50 stood at 132 nM.

`O=[N+]([O-])c1cc(-c2nc(-c3ccccc3OC(F)(F)F)no2)ccc1N1CCCC1` [Compound I14, 5-(3-nitro-4-pyrrolidin-1-ylphenyl)-3-[2-(trifluoromethoxy)phenyl]-1,2,4-oxadiazole]: the EC50 turned out to be 428 nM.

For `O=[N+]([O-])c1cc(-c2nc(-c3ccccc3OC(F)(F)F)no2)ccc1N1CCCCCC1` [Compound I15, 1-(2-nitro-4-{3-[2-(trifluoromethoxy)phenyl]-1,2,4-oxadiazol-5-yl}phenyl)azepane], the EC50 came to 1130 nM.

On to `COc1ccccc1-c1noc(-c2ccc(N3CCCCCC3)c([N+](=O)[O-])c2)n1` [Compound I16, 1-{4-[3-(2-methoxyphenyl)-1,2,4-oxadiazol-5-yl]-2-nitrophenyl}azepane], for which the EC50 turned out to be 228 nM.

As for `O=[N+]([O-])c1cc(-c2nc(-c3ccccc3OC(F)(F)F)no2)ccc1N1CCOCC1` [Compound I17, 4-(2-nitro-4-{3-[2-(trifluoromethoxy)phenyl]-1,2,4-oxadiazol-5-yl}phenyl)morpholine], the EC50 worked out at 135 nM.

Turning to `COc1ccccc1-c1noc(-c2ccc(-c3ccccc3C(F)(F)F)c(C)c2)n1` [Compound I24, 3-(2-methoxyphenyl)-5-[2-methyl-2′-(trifluoromethyl)biphenyl-4-yl]-1,2,4-oxadiazole], the EC50 was 57 nM.

Take `CC(C)Cc1ccc(-c2nc(-c3ccccc3OC(F)(F)F)no2)cc1` [Compound I30, 5-(4-isobutylphenyl)-3-[2-(trifluoromethoxy)phenyl]-1,2,4-oxadiazole]: the EC50 was found to be 64 nM.

`O=[N+]([O-])c1cc(-c2nc(-c3ccccc3OC(F)(F)F)no2)ccc1N1CCCCC1` [Compound I31, 1-(2-nitro-4-{3-[2-(trifluoromethoxy)phenyl]-1,2,4-oxadiazol-5-yl}phenyl)piperidine]: the EC50 was determined as 58 nM.

As to `COc1ccccc1-c1noc(-c2ccc(N3CCCC(F)(F)C3)c(N(S(C)(=O)=O)S(C)(=O)=O)c2)n1` [Compound I37, N-dimethanesulfonyl-2-(3,3-difluoropiperidin-1-yl)-5-{3-[2-(methoxy)phenyl]-1,2,4-oxadiazol-5-yl}aniline], the EC50 came to 921 nM.

For the compound `CC1CCC(C)N1c1ccc(-c2nc(-c3ccccc3OC(F)(F)F)no2)cc1[N+](=O)[O-]` (stereo not shown) [Compound I38, 5-[4-(2,5-dimethylpyrrolidin-1-yl)-3-nitrophenyl]-3-[2-(trifluoromethoxy)phenyl]-1,2,4-oxadiazole], the EC50 worked out at 4470 nM.

On to `COc1ccc(F)cc1-c1noc(-c2ccc(N3C(C)CCC3C)c([N+](=O)[O-])c2)n1` (stereo not shown) [Compound I39, 5-[4-(2,5-dimethylpyrrolidin-1-yl)-3-nitrophenyl]-3-(5-fluoro-2-methoxyphenyl)-1,2,4-oxadiazole], for which the EC50 was found to be 267 nM.

Regarding `COc1ccccc1-c1noc(-c2ccc(-c3ccccc3OC)c(C)c2)n1` [Compound I40, 5-(2′-methoxy-2-methylbiphenyl-4-yl)-3-(2-methoxyphenyl)-1,2,4-oxadiazole], the EC50 is 27 nM.

In the case of `Nc1cc(-c2nc(-c3ccccc3OC(F)(F)F)no2)ccc1N1CCCC(F)(F)C1` [Compound I41, 2-(3,3-difluoropiperidin-1-yl)-5-{3-[2-(trifluoromethoxy)phenyl]-1,2,4-oxadiazol-5-yl}aniline], the EC50 is 116 nM.

As for `COc1ccccc1-c1noc(-c2ccc(N3C(C)CCC3C)c([N+](=O)[O-])c2)n1` (stereo not shown) [Compound I42, 5-[4-(2,5-dimethylpyrrolidin-1-yl)-3-nitrophenyl]-3-(2-methoxyphenyl)-1,2,4-oxadiazole], the 50% effective concentration (EC50) stood at 1250 nM.

Consider `CS(=O)(=O)Nc1cc(-c2nc(-c3ccccc3OC(F)(F)F)no2)ccc1N1CCCC(F)(F)C1` [Compound I43, N-(2-(3,3-difluoropiperidin-1-yl)-5-{3-[2-(trifluoromethoxy)phenyl]-1,2,4-oxadiazol-5-yl}phenyl)methanesulfonamide], for which the 50% effective concentration (EC50) was 39 nM.

For `COc1ccccc1-c1noc(-c2ccc(-c3ccccc3C)c(OC)c2)n1` [Compound I46, 5-(2-methoxy-2′-methylbiphenyl-4-yl)-3-(2-methoxyphenyl)-1,2,4-oxadiazole], the EC50 came to 33 nM.

For `COc1ccc(-c2ccc(-c3nc(-c4ccccc4OC)no3)cc2C)c(OC)c1` [Compound I47, 5-(2′,4′-dimethoxy-2-methylbiphenyl-4-yl)-3-(2-methoxyphenyl)-1,2,4-oxadiazole], the EC50 is 1200 nM.

Consider `Cc1cc(-c2nc(-c3ccccc3OC(F)(F)F)no2)ccc1-c1c(C)noc1C` [Compound I49, 5-[4-(3,5-dimethylisoxazol-4-yl)-3-methylphenyl]-3-[2-(trifluoromethoxy)phenyl]-1,2,4-oxadiazole], for which the EC50 turned out to be 191 nM.

Regarding `COc1ccccc1-c1noc(-c2ccc(-c3c(C)noc3C)c(C)c2)n1` [Compound I50, 5-[4-(3,5-dimethylisoxazol-4-yl)-3-methylphenyl]-3-(2-methoxyphenyl)-1,2,4-oxadiazole], the EC50 was 172 nM.

Turning to `COCCN(CCOC)c1ccc(-c2nc(-c3cc(F)ccc3OC)no2)cc1[N+](=O)[O-]` [Compound I51, 4-[3-(5-fluoro-2-methoxyphenyl)-1,2,4-oxadiazol-5-yl]-N,N-bis(2-methoxyethyl)-2-nitroaniline], the EC50 was found to be 85 nM.

`COCCN(CCOC)c1ccc(-c2nc(-c3ccccc3OC)no2)cc1[N+](=O)[O-]` [Compound I52, N,N-bis(2-methoxyethyl)-4-[3-(2-methoxyphenyl)-1,2,4-oxadiazol-5-yl]-2-nitroaniline]: the EC50 came to 295 nM.

In the case of `COc1ccc(-c2ccc(-c3nc(-c4ccccc4OC(F)(F)F)no3)cc2C)c(OC)c1` [Compound I56, 5-(2′,4′-dimethoxy-2-methylbiphenyl-4-yl)-3-[2-(trifluoromethoxy)phenyl]-1,2,4-oxadiazole], the EC50 came out at 302 nM.

Take `Cc1cc(-c2nc(-c3ccccc3OC(F)(F)F)no2)ccc1N1CCCCC1` [Compound I58, 1-(2-methyl-4-{3-[2-(trifluoromethoxy)phenyl]-1,2,4-oxadiazol-5-yl}phenyl)piperidine]: the EC50 was found to be 39 nM.

On to `COc1ccccc1-c1noc(-c2ccc(N3CCCCC3)c(C(F)(F)F)c2)n1` [Compound I59, 1-[4-[3-(2-methoxyphenyl)-1,2,4-oxadiazol-5-yl]-2-(trifluoromethyl)phenyl]piperidine], for which the EC50 is 21 nM.

Consider `COc1ccccc1-c1noc(-c2ccc(N3CCOCC3)c(C)c2)n1` [Compound I64, 4-{4-[3-(2-methoxyphenyl)-1,2,4-oxadiazol-5-yl]-2-methylphenyl}morpholine], for which the EC50 was determined as 98 nM.

Regarding `Cc1cc(-c2nc(-c3ccccc3OC(F)(F)F)no2)ccc1N1CCOCC1` [Compound I65, 4-(2-methyl-4-{3-[2-(trifluoromethoxy)phenyl]-1,2,4-oxadiazol-5-yl}phenyl)morpholine], the EC50 was found to be 130 nM.

As for `COc1ccc(F)cc1-c1noc(-c2ccc(N3CCOCC3)c(C)c2)n1` [Compound I66, 4-{4-[3-(5-fluoro-2-methoxyphenyl)-1,2,4-oxadiazol-5-yl]-2-methylphenyl}morpholine], the EC50 was 28 nM.

As to `COc1ccccc1-c1noc(-c2ccc(N3CCCCC3)c(C)c2)n1` [Compound I67, 1-{4-[3-(2-methoxyphenyl)-1,2,4-oxadiazol-5-yl]-2-methylphenyl}piperidine], the EC50 stood at 24 nM.

With `COc1ccc(F)cc1-c1noc(-c2ccc(N3CCCCC3)c(C)c2)n1` [Compound I68, 1-{4-[3-(5-fluoro-2-methoxyphenyl)-1,2,4-oxadiazol-5-yl]-2-methylphenyl}piperidine], the EC50 came to 10 nM.

Regarding `COc1ccc(F)cc1-c1noc(-c2ccc(-c3cccnc3C)c(C)c2)n1` [Compound I73, 3-{4-[3-(5-fluoro-2-methoxyphenyl)-1,2,4-oxadiazol-5-yl]-2-methylphenyl}-2-methylpyridine], the EC50 was determined as 341 nM.

On to `COc1ccc(F)cc1-c1noc(-c2ccc(N3CCCCC3C)nc2)n1` (stereo not shown) [Compound I75, 5-[3-(5-fluoro-2-methoxyphenyl)-1,2,4-oxadiazol-5-yl]-2-(2-methylpiperidin-1-yl)pyridine], for which the EC50 stood at 1190 nM.

As for `COCC1CCCN1c1ncc(-c2nc(-c3cc(F)ccc3OC)no2)cc1C` (stereo not shown) [Compound I76, 5-[3-(5-fluoro-2-methoxyphenyl)-1,2,4-oxadiazol-5-yl]-2-[2-(methoxymethyl)pyrrolidin-1-yl]-3-methylpyridine], the EC50 is 522 nM.

On to `COc1ccc(F)cc1-c1noc(-c2ccc(-c3ccccc3C)c(C(=O)O)c2)n1` [Compound I79, 4-[3-(5-fluoro-2-methoxyphenyl)-1,2,4-oxadiazol-5-yl]-2′-methylbiphenyl-2-carboxylic acid], for which the EC50 was 657 nM.
